For one assay, the target named is T1, Cathepsin G (Homo sapiens, UniProt P08311).
T1 sequence (P08311 whole entry): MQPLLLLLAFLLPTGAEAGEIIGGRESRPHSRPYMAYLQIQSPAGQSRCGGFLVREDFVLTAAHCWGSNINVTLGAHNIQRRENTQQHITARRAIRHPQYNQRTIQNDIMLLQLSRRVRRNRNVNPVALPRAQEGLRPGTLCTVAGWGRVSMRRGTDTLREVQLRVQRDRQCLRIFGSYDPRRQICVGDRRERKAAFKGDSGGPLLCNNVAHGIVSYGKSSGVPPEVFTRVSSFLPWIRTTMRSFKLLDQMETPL
Briefly: Inhibitory activity against human neutrophil cathepsin G.

The target of the next assay is T2, Chymase (Homo sapiens, UniProt P23946).
T2 sequence (P23946 whole entry): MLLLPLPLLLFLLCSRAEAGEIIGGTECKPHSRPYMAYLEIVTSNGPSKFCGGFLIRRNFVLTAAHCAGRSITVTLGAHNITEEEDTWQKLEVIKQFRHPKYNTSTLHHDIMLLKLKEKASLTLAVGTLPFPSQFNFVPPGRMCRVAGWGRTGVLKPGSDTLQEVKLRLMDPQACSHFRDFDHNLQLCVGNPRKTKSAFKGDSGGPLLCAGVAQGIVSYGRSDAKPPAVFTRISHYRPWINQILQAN
Put plainly: Inhibitory activity against human heart chymase in vitro.

Usually IC50 stands for the concentration needed to halve the response being measured.

A value given as a limit tells only on which side of the number the result lay.

Consider `O=C(OCn1c(O)cn(-c2ccccc2)c1=O)c1ccccc1` [Benzoic acid 2,5-dioxo-3-phenyl-imidazolidin-1-ylmethyl ester], for which the IC50 at Cathepsin G and on Chymase was greater than 100 µM throughout.

As to `O=c1n(S(=O)(=O)c2ccc(Cl)cc2)cc(O)n1-c1ccc(Cl)cc1` [1-(4-Chloro-benzenesulfonyl)-3-(4-chloro-phenyl)-imidazolidine-2,4-dione], the IC50 at Chymase is greater than 100 µM.

(Values after BindingDB's records for doi:10.1021/jm960793t (Suntory, 1997).)
